The values that follow come from US12209081B2 (Katholieke Universiteit Leuven, priority 2020, dated 2025).

For the assay, the target named is mouse TRPM3α2 (mTRPM3) ion channel (Mus musculus (Mouse), UniProt J9SQF3). As to the kind of experiment: TRPM3 ion channel driven Ca2+ uptake, Fluo-4 AM assay, mTRPM3alpha2 overexpressing flip-in HEK293 cells stimulated with pregnenolone sulfate. Type of assay: cell-based. The procedure, abridged:
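Read-out is Ca2+ influx via Fluo-4 AM fluorescence at 485/535 nm, taken right after seeding ~2000 cells/well onto compound with 50 μM PS. Inhibition computed from RFU between vehicle-stimulated and positive-control-inhibitor wells; cells were mTRPM3α2-overexpressing flip-in HEK293.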

Where [1] appears, read: PS (50 μM) stimulated, cpd 001-199.
The mark [2] stands for this setting: PS (50 μM) stimulated, cpds. 667-751.
Setting [3] is: PS (50 μM) stimulated, cpds. 500-599.

mouse TRPM3α2 (mTRPM3) ion channel, sequence (J9SQF3 other isoform, or with tags, fused parts or gaps): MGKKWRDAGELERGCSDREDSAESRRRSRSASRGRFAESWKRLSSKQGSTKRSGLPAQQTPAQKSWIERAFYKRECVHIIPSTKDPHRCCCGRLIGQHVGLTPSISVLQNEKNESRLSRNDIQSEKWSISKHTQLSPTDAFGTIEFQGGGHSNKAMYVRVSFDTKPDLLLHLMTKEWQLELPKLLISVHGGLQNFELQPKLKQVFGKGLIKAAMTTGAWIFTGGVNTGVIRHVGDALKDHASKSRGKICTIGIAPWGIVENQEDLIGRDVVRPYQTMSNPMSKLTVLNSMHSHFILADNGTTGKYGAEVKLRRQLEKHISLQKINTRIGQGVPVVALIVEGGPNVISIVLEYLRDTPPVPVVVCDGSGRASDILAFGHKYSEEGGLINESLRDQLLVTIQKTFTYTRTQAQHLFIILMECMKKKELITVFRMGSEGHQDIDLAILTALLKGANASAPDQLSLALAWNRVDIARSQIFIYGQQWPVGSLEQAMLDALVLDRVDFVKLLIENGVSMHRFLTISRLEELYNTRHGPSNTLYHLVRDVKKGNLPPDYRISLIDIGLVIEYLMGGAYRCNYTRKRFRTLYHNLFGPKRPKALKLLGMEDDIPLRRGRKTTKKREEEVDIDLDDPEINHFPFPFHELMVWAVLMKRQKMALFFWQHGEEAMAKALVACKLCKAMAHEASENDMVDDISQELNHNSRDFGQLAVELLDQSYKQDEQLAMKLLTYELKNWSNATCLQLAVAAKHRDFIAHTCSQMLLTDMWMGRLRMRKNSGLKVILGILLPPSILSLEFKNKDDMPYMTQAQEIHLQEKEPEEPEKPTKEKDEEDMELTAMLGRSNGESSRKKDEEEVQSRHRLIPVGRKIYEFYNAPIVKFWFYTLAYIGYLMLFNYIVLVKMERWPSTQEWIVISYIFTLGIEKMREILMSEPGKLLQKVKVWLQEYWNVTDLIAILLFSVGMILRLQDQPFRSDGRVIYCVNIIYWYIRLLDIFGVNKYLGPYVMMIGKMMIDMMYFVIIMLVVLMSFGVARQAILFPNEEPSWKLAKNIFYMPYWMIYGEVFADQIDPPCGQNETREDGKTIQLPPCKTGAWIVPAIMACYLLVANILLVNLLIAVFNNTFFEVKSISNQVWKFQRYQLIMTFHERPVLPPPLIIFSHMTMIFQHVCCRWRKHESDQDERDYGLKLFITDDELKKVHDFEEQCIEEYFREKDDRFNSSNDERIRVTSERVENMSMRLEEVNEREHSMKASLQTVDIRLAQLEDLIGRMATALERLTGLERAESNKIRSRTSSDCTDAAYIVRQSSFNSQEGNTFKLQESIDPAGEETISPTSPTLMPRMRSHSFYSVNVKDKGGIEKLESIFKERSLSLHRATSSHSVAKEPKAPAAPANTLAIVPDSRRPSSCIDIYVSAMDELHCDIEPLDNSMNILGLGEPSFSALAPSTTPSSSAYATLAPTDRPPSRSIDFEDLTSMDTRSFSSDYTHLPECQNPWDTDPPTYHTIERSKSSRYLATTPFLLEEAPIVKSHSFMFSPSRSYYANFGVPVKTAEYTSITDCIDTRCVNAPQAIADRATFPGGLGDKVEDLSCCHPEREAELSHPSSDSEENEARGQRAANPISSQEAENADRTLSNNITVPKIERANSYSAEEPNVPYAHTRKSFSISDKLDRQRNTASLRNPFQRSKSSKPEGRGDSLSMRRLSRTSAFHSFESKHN

Molecule `Cc1ncsc1COc1ccc2oc(C)c(C(=O)NC3CCN(CCO)C3=O)c2c1` (single isomer, unassigned) [160-En 1, N-(1-(2-hydroxyethyl)-2-oxopyrrolidin-3-yl)-2-methyl-5-((4-methylthiazol-5-yl)methoxy)benzo-furan-3-carboxamide] had an IC50 under setting [1] of under 1 µM.
For the molecule `Cc1ncsc1C(C)Oc1ccc2oc(C)c(C(=O)NC3(CO)CCOCC3)c2c1` (stereo not shown) [cpd 623-En 1], where the note is “PS (50 μM) stimulated, cpds. 608-666”, the IC50 is under 1 µM.
With `Cc1ncsc1COc1ccc2oc(C)c(C(=O)NC3CCOCC3(F)F)c2c1` (single isomer, unassigned) [cpd 723-En 1], under setting [2], the IC50 is under 1 µM.
As for `Cc1oc2ccc(OCc3cccnc3OC(F)F)cc2c1C(=O)NC1CCNCC1(F)F` (single isomer, unassigned) [cpd 338-En 2], the IC50 (PS 50 μM, cpds 300-399) was under 1 µM.
Turning to `Cc1cc(COc2ccc3oc(C)c(C(=O)NC4CCNCC4(F)F)c3c2)no1` (single isomer, unassigned) [cpd 553-En 2], under setting [3], the IC50 fell in the range of 1 to 20 µM.
The molecule `Cc1oc2ccc(OCc3nc4ccccc4s3)cc2c1C(=O)O` [compound 017, 5-(benzo[d]thiazol-2-ylmethoxy)-2-methylbenzofuran-3-carboxylic acid] yielded an IC50 under setting [1] of over 20 µM.
Turning to `Cc1oc2ccc(OCc3ccc(F)cn3)cc2c1C(=O)N[C@@H](CO)C(N)=O` [compound 741, (S)-N-(1-Amino-3-hydroxy-1-oxopropan-2-yl)-5-((5-fluoropyridin-2-yl)methoxy)-2-methylbenzofuran-3-carboxamide], under setting [2], the IC50 is under 1 µM.
With `Cc1ncsc1COc1ccc2oc(C(F)F)c(C(=O)NC3CCNCC3(F)F)c2c1` (single isomer, unassigned) [cpd 310-En 2], the IC50 (PS 50 μM, cpds 300-399) is under 1 µM.
For `Cc1ncsc1COc1ccc2oc(C)c(C(=O)NC3CCNCC3(F)F)c2c1` (stereo not shown) [compound 056, N-(3,3-difluoropiperidin-4-yl)-2-methyl-5-((4-methylthiazol-5-yl)methoxy)benzofuran-3-carboxamide], the IC50 under setting [1] was under 1 µM.
Under setting [1], `Cc1oc2ccc(OCc3ccc4nccn4c3)cc2c1C(=O)NC1CCNCC1(F)F` (stereo not shown) [compound 070, N-(3,3-difluoropiperidin-4-yl)-5-(imidazo[1,2-a]pyridin-6-ylmethoxy)-2-methylbenzofuran-3-carboxamide] yielded an IC50 of under 1 µM.
On to `Cc1ncsc1COc1ccc2oc(C)c(C(=O)NCC(C)(C)O)c2c1` [compound 506, N-(2-hydroxy-2-methylpropyl)-2-methyl-5-((4-methylthiazol-5-yl)methoxy)benzofuran-3-carboxamide], for which, under setting [3], the IC50 is under 1 µM.
Take `Cc1noc(C)c1COc1ccc2oc(C)c(C(=O)O)c2c1` [compound 016, 5-((3,5-dimethylisoxazol-4-yl)methoxy)-2-methylbenzofuran-3-carboxylic acid]: the IC50 under setting [1] is over 20 µM.
Under “PS 50 μM, cpds 300-399”, `Cc1oc2ccc(OCc3cccnc3OC(F)F)cc2c1C(=O)NC1(CO)CCOCC1` [compound 339, 5-((2-(difluoromethoxy)pyridin-3-yl)methoxy)-N-(4-(hydroxymethyl)tetrahydro-2H-pyran-4-yl) -2-methylbenzofuran-3-carboxamide] registered an IC50 of under 1 µM.
`Cc1ncc(COc2ccc3oc(C)c(C(=O)NC4(COC(F)F)CC4)c3c2)s1` [compound 399, N-(1-((difluoromethoxy)methyl)cyclopropyl)-2-methyl-5-((2-methylthiazol-5-yl)methoxy)benzofuran-3-carboxamide] registered an IC50 (PS 50 μM, cpds 300-399) of under 1 µM.
As to `Cc1ncsc1COc1ccc2oc(C)c(C(=O)NC3CCN(CC(F)(F)F)C3)c2c1` (single isomer, unassigned) [116-En 1, 2-methyl-5-((4-methylthiazol-5-yl)methoxy)-N-(1-(2,2,2-trifluoroethyl)pyrrolidin-3-yl)benzofuran-3-carboxamide], the IC50 under setting [1] was under 1 µM.
In turn, `Cc1ncc(COc2ccc3oc(C(F)F)c(C(=O)N[C@@H](CO)C(N)=O)c3c2)o1` [compound 746, (S)-N-(1-amino-3-hydroxy-1-oxopropan-2-yl)-2-(difluoromethyl)-5-((2-methyloxazol-5-yl)methoxy)benzofuran-3-carboxamide] returned an IC50 under setting [2] of under 1 µM.

As a reminder, the IC50 is the concentration that gives 50% inhibition. A higher IC50 goes with a need for much substance.
